From PubChem BioAssay (NCI)
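Test compounds were applied to cells in 96-well plates for 48 hours at 5 doses. GI50 = concentration required for 50% inhibition of growth. TGI: total growth inhibition.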

Legend:
Assay in all cases: DTP human tumour cell line panel, 48 h
TK-10 renal = test system: TK-10 renal
MDA-MB-231 breast = test system: MDA-MB-231 breast
EKVX NSCLC = test system: EKVX NSCLC
NCI-H23 lung = test system: NCI-H23 lung
M14 melanoma = test system: M14 melanoma
T-47D breast = test system: T-47D breast
U251 CNS = test system: U251 CNS
HS 578T breast = test system: HS 578T breast
HT29 colon = test system: HT29 colon
PC-3 prostate = test system: PC-3 prostate
BT-549 breast = test system: BT-549 breast
HOP-62 NSCLC = test system: HOP-62 NSCLC
UACC-62 melanoma = test system: UACC-62 melanoma
COLO 205 colon = test system: COLO 205 colon
UACC-257 melanoma = test system: UACC-257 melanoma
SF-295 CNS = test system: SF-295 CNS
SF-268 CNS = test system: SF-268 CNS
SNB-19 CNS = test system: SNB-19 CNS
OVCAR-8 ovarian = test system: OVCAR-8 ovarian
MOLT-4 leukemia = test system: MOLT-4 leukemia
CCRF-CEM leukemia = test system: CCRF-CEM leukemia
RXF 393 renal = test system: RXF 393 renal
HCC-2998 colon = test system: HCC-2998 colon
NCI-H226 lung = test system: NCI-H226 lung
OVCAR-3 ovarian = test system: OVCAR-3 ovarian
ACHN renal = test system: ACHN renal
MALME-3M melanoma = test system: MALME-3M melanoma
SK-OV-3 ovarian = test system: SK-OV-3 ovarian
KM12 colon = test system: KM12 colon
NCI/ADR-RES ovarian = test system: NCI/ADR-RES ovarian
K-562 leukemia = test system: K-562 leukemia
IGROV1 ovarian = test system: IGROV1 ovarian
OVCAR-5 ovarian = test system: OVCAR-5 ovarian
A498 renal = test system: A498 renal
HCT-116 colon = test system: HCT-116 colon
SR leukemia = test system: SR leukemia
OVCAR-4 ovarian = test system: OVCAR-4 ovarian
HOP-92 NSCLC = test system: HOP-92 NSCLC
786-0 renal = test system: 786-0 renal
SK-MEL-28 melanoma = test system: SK-MEL-28 melanoma
SK-MEL-5 melanoma = test system: SK-MEL-5 melanoma
SW-620 colon = test system: SW-620 colon
UO-31 renal = test system: UO-31 renal
SF-539 CNS = test system: SF-539 CNS
LOX IMVI melanoma = test system: LOX IMVI melanoma
HL-60(TB) leukemia = test system: HL-60(TB) leukemia
SK-MEL-2 melanoma = test system: SK-MEL-2 melanoma
HCT-15 colon = test system: HCT-15 colon
SNB-75 CNS = test system: SNB-75 CNS
NCI-H460 lung = test system: NCI-H460 lung
MCF7 breast = test system: MCF7 breast
NCI-H522 lung = test system: NCI-H522 lung
DU-145 prostate = test system: DU-145 prostate
CAKI-1 renal = test system: CAKI-1 renal
MDA-MB-435 = test system: MDA-MB-435
SN12C renal = test system: SN12C renal
RPMI-8226 leukemia = test system: RPMI-8226 leukemia
A549 NSCLC = test system: A549 NSCLC

Structure (SMILES): Cc1cc(C)c(CNC(=O)c2cc(-c3ccc(CN4CCOCC4)cc3)cc3c2cnn3C2CCCC2)c(=O)[nH]1
- GI50 (TK-10 renal): 16.4 µM
- TGI (TK-10 renal): 35.9 µM
- GI50 (MDA-MB-231 breast): 19.9 µM
- TGI (MDA-MB-231 breast): 51.7 µM
- GI50 (EKVX NSCLC): 11.8 µM
- TGI (EKVX NSCLC): 28.2 µM
- GI50 (NCI-H23 lung): 18.5 µM
- TGI (NCI-H23 lung): 47.8 µM
- GI50 (M14 melanoma): 18.8 µM
- TGI (M14 melanoma): 43.1 µM
- GI50 (T-47D breast): 12.9 µM
- TGI (T-47D breast): 50.4 µM
- GI50 (U251 CNS): 15.2 µM
- TGI (U251 CNS): 31.7 µM
- GI50 (HS 578T breast): 19.1 µM
- TGI (HS 578T breast): 64 µM
- GI50 (HT29 colon): 11.8 µM
- TGI (HT29 colon): 27.1 µM
- GI50 (PC-3 prostate): 17.9 µM
- TGI (PC-3 prostate): 54.6 µM
- GI50 (BT-549 breast): 17.1 µM
- TGI (BT-549 breast): 41.7 µM
- GI50 (HOP-62 NSCLC): 18 µM
- TGI (HOP-62 NSCLC): 39.3 µM
- GI50 (UACC-62 melanoma): 17.8 µM
- TGI (UACC-62 melanoma): 43.2 µM
- GI50 (COLO 205 colon): 14.7 µM
- TGI (COLO 205 colon): 34 µM
- GI50 (UACC-257 melanoma): 21 µM
- TGI (UACC-257 melanoma): 42.8 µM
- GI50 (SF-295 CNS): 16.6 µM
- TGI (SF-295 CNS): 36.5 µM
- GI50 (SF-268 CNS): 13.9 µM
- TGI (SF-268 CNS): 43.8 µM
- GI50 (SNB-19 CNS): 24.7 µM
- TGI (SNB-19 CNS): 77.1 µM
- GI50 (OVCAR-8 ovarian): 17.3 µM
- TGI (OVCAR-8 ovarian): 57.9 µM
- GI50 (MOLT-4 leukemia): 17.5 µM
- TGI (MOLT-4 leukemia): > 100 µM
- GI50 (CCRF-CEM leukemia): 26.3 µM
- TGI (CCRF-CEM leukemia): 97.5 µM
- GI50 (RXF 393 renal): 14.6 µM
- TGI (RXF 393 renal): 32.6 µM
- GI50 (HCC-2998 colon): 16.6 µM
- TGI (HCC-2998 colon): 35.5 µM
- GI50 (NCI-H226 lung): 17.5 µM
- TGI (NCI-H226 lung): 37 µM
- GI50 (OVCAR-3 ovarian): 13.4 µM
- TGI (OVCAR-3 ovarian): 30.9 µM
- GI50 (ACHN renal): 15.1 µM
- TGI (ACHN renal): 34.6 µM
- GI50 (MALME-3M melanoma): 16.7 µM
- TGI (MALME-3M melanoma): 34.1 µM
- GI50 (SK-OV-3 ovarian): 20.1 µM
- TGI (SK-OV-3 ovarian): 44.5 µM
- GI50 (KM12 colon): 18.6 µM
- TGI (KM12 colon): 49 µM
- GI50 (NCI/ADR-RES ovarian): 15.1 µM
- TGI (NCI/ADR-RES ovarian): 42.5 µM
- GI50 (K-562 leukemia): 21.4 µM
- TGI (K-562 leukemia): > 100 µM
- GI50 (IGROV1 ovarian): 17.6 µM
- TGI (IGROV1 ovarian): 67.8 µM
- GI50 (OVCAR-5 ovarian): 22.1 µM
- TGI (OVCAR-5 ovarian): 63.5 µM
- GI50 (A498 renal): 15.5 µM
- TGI (A498 renal): 34.6 µM
- GI50 (HCT-116 colon): 18.2 µM
- TGI (HCT-116 colon): 50.2 µM
- GI50 (SR leukemia): 22.4 µM
- TGI (SR leukemia): 65.5 µM
- GI50 (OVCAR-4 ovarian): 21.3 µM
- TGI (OVCAR-4 ovarian): 91.6 µM
- GI50 (HOP-92 NSCLC): 10.2 µM
- TGI (HOP-92 NSCLC): 27.2 µM
- GI50 (786-0 renal): 17.6 µM
- TGI (786-0 renal): 42.4 µM
- GI50 (SK-MEL-28 melanoma): 15.7 µM
- TGI (SK-MEL-28 melanoma): 32.4 µM
- GI50 (SK-MEL-5 melanoma): 13.7 µM
- TGI (SK-MEL-5 melanoma): 27.3 µM
- GI50 (SW-620 colon): 25.3 µM
- TGI (SW-620 colon): > 100 µM
- GI50 (UO-31 renal): 8.8 µM
- TGI (UO-31 renal): 26.6 µM
- GI50 (SF-539 CNS): 16.1 µM
- TGI (SF-539 CNS): 34.4 µM
- GI50 (LOX IMVI melanoma): 15.3 µM
- TGI (LOX IMVI melanoma): 34.2 µM
- GI50 (HL-60(TB) leukemia): 16.5 µM
- TGI (HL-60(TB) leukemia): 55.2 µM
- GI50 (SK-MEL-2 melanoma): 17.8 µM
- TGI (SK-MEL-2 melanoma): 35.4 µM
- GI50 (HCT-15 colon): 10.2 µM
- TGI (HCT-15 colon): 25.9 µM
- GI50 (SNB-75 CNS): 12.6 µM
- TGI (SNB-75 CNS): 32.4 µM
- GI50 (NCI-H460 lung): 16.1 µM
- TGI (NCI-H460 lung): 43 µM
- GI50 (MCF7 breast): 10.8 µM
- TGI (MCF7 breast): 28.8 µM
- GI50 (NCI-H522 lung): 16.2 µM
- TGI (NCI-H522 lung): 30.4 µM
- GI50 (DU-145 prostate): 21.5 µM
- TGI (DU-145 prostate): 81 µM
- GI50 (CAKI-1 renal): 16.1 µM
- TGI (CAKI-1 renal): 42.2 µM
- GI50 (MDA-MB-435): 15.9 µM
- TGI (MDA-MB-435): 35 µM
- GI50 (SN12C renal): 19.3 µM
- TGI (SN12C renal): 46.6 µM
- GI50 (RPMI-8226 leukemia): 13.7 µM
- TGI (RPMI-8226 leukemia): 50.7 µM
- GI50 (A549 NSCLC): 17.8 µM
- TGI (A549 NSCLC): 41.6 µM
